What was measured:
[1] = for mass density: 100 kPa, Liquid, Vibrating tube method; for Triple point temperature: DSC
[2] = mn = molality of the nth substance listed, in mol/kg; settings: 298.15 K, 100 kPa, Liquid, Falling or rolling sphere viscometry
[3] = Molar enthalpy of transition or fusion; settings: DSC
[4] = excess molar enthalpy (molar enthalpy of mixing); xn = mol fraction of the nth substance listed; settings: 100 kPa, Liquid, Flow calorimetry
[5] = xn = mol fraction of the nth substance listed; settings: 100 kPa, Liquid, Vibrating tube method

CCCCn1cc[n+](C)c1.N#CN=C=[N-] [1-butyl-3-methylimidazolium dicyanamide]
[1]
Settings	mass density [kg/m3]
288.15 K	1065.64
293.15 K	1062.04
298.15 K	1059.22
303.15 K	1056.04
308.15 K	1052.88
313.15 K	1049.74
318.15 K	1046.63
323.15 K	1043.5
328.15 K	1040.4
333.15 K	1037.38

CCCC[N+]1(C)CCCC1.O=S(=O)([O-])C(F)(F)C(F)F + O
[2]
Settings	viscosity [mPa·s]
m1 = 0.01177	0.8996
m1 = 0.02018	0.9033
m1 = 0.02912	0.9095
m1 = 0.05104	0.9233
m1 = 0.07113	0.934
m1 = 0.09124	0.9463

CCCC[N+]1(C)CCCC1.N#CN=C=[N-] [1-butyl-1-methylpyrrolidinium dicyanamide]
[1]
Settings	mass density [kg/m3]
288.15 K	1019.08
293.15 K	1016.25
298.15 K	1013.43
303.15 K	1010.62
308.15 K	1007.83
313.15 K	1005.05
318.15 K	1002.29

CCCC[N+]1(C)CCCC1.O=S(=O)([O-])C(F)(F)C(F)F
Settings	Molar enthalpy of transition or fusion, [3] [kcal/mol]	Triple point temperature, [1] [K]
Crystal 1	2.61	318.5
Crystal 2	3.01	279.3

CCCCn1cc[n+](C)c1.O=S(=O)([O-])C(F)(F)C(F)F + O
[2]
Settings	viscosity [mPa·s]
m1 = 0.0216	0.9005
m1 = 0.02818	0.9042
m1 = 0.05086	0.9161
m1 = 0.06272	0.9229
m1 = 0.0705	0.9269
m1 = 0.0811	0.9328

CCCC[N+]1(C)CCCC1.N#CN=C=[N-] [1-butyl-1-methylpyrrolidinium dicyanamide] + O
[2]
Settings	viscosity [mPa·s]
m1 = 0.01007	0.8956
m1 = 0.01538	0.8983
m1 = 0.03088	0.9043
m1 = 0.04839	0.9119
m1 = 0.0703	0.921
m1 = 0.09073	0.9308

Settings	excess molar enthalpy, [4] [kcal/mol]	mass density, [5] [kg/m3]
288.15 K, x1 = 0.000366	-0.00048	999.262
288.15 K, x1 = 0.000732	-0.000918	999.415
288.15 K, x1 = 0.001097	-0.00134	999.558
288.15 K, x1 = 0.001462	-0.00175	999.693
288.15 K, x1 = 0.001827	-0.00212	999.827
288.15 K, x1 = 0.002192	–	999.945
298.15 K, x1 = 0.000366	-0.00027	997.161
298.15 K, x1 = 0.000732	-0.000516	997.266
298.15 K, x1 = 0.001098	-0.000743	997.365
298.15 K, x1 = 0.001463	-0.000963	997.458
298.15 K, x1 = 0.001828	-0.00117	997.547
298.15 K, x1 = 0.002193	-0.00138	997.632
308.15 K, x1 = 0.000366	-6.21e-05	994.108
308.15 K, x1 = 0.000731	-0.0001	994.175
308.15 K, x1 = 0.001097	-0.000127	994.237
308.15 K, x1 = 0.001462	-0.00016	994.294
308.15 K, x1 = 0.001827	-0.000201	994.349
308.15 K, x1 = 0.002192	-0.00022	994.4
318.15 K, x1 = 0.000366	0.000141	990.258
318.15 K, x1 = 0.000731	0.000301	990.295
318.15 K, x1 = 0.001097	0.000471	990.326
318.15 K, x1 = 0.001462	0.000643	990.353
318.15 K, x1 = 0.001826	0.00082	990.377
318.15 K, x1 = 0.002192	0.000997	990.398

CCCCn1cc[n+](C)c1.O=S(=O)([O-])C(F)(F)C(F)F
[1]
Settings	mass density [kg/m3]
288.15 K	1355.49
293.15 K	1351.46
298.15 K	1347.31
303.15 K	1343.19
308.15 K	1339.08
313.15 K	1335.01
318.15 K	1330.9
323.15 K	1326.84
328.15 K	1322.8
333.15 K	1318.77

CCCCn1cc[n+](C)c1.N#CN=C=[N-] [1-butyl-3-methylimidazolium dicyanamide] + O
[2]
Settings	viscosity [mPa·s]
m1 = 0.01061	0.8936
m1 = 0.01522	0.895
m1 = 0.03084	0.901
m1 = 0.05091	0.9086
m1 = 0.06874	0.9157
m1 = 0.08186	0.9219

Settings	excess molar enthalpy, [4] [kcal/mol]	mass density, [5] [kg/m3]
288.15 K, x1 = 0.000389	5.5e-05	999.45
288.15 K, x1 = 0.000777	0.000139	999.8
288.15 K, x1 = 0.001165	0.000232	1000.14
288.15 K, x1 = 0.001552	0.000335	1000.47
288.15 K, x1 = 0.00194	0.000437	1000.79
288.15 K, x1 = 0.002327	0.000547	1001.11
298.15 K, x1 = 0.000388	0.000198	997.35
298.15 K, x1 = 0.000777	0.000428	997.65
298.15 K, x1 = 0.001165	0.000664	997.93
298.15 K, x1 = 0.001552	0.000903	998.21
298.15 K, x1 = 0.001939	0.00115	998.48
298.15 K, x1 = 0.002327	0.0014	998.75
308.15 K, x1 = 0.000389	0.000351	994.29
308.15 K, x1 = 0.000777	0.000739	994.54
308.15 K, x1 = 0.001165	0.00113	994.79
308.15 K, x1 = 0.001552	0.00152	995.02
308.15 K, x1 = 0.00194	0.0019	995.25
308.15 K, x1 = 0.002327	0.0023	995.48
318.15 K, x1 = 0.000388	0.000511	990.43
318.15 K, x1 = 0.000777	0.00106	990.65
318.15 K, x1 = 0.001165	0.00161	990.85
318.15 K, x1 = 0.001552	0.00215	991.06
318.15 K, x1 = 0.00194	0.00269	991.25
318.15 K, x1 = 0.002328	0.00323	991.45

From the NIST ThermoML archive (doi:10.1016/j.jct.2018.02.017)
